Patent publication US20090076152A1, “Novel Compounds Active as Muscarinic Receptor Antagonists” (priority 2007, published 2009)

Target: T1, human muscarinic M3 receptor (Homo sapiens, UniProt P20309)
T1 construct: expressed in transfected cells
Assay: hM3 β-Lac potency assay (NFAT-Betalactamase reporter in CHO-K1 cells)
Conditions: CHO cells recombinantly expressing human M3, NFAT β-lactamase reporter; inhibition of 80 nM carbamyl choline signal, 4 h; IC50 converted to Ki by Cheng-Prusoff; read-out: Cell based β-lactamase M3 Ki
Procedure: M3 potency was determined in CHO-K1 cells transfected with the NFAT-Betalactamase gene. CHO (Chinese Hamster Ovary) cells recombinantly expressing the human muscarinic M3 receptor were transfected with the NFAT_β-Lac_Zeo plasmid. Cells were grown in DMEM with Glutamax-1, supplemented with 25 mM HEPES(Life Technologies 32430-027), containing 10% FCS (Foetal Calf Serum; Sigma F-7524), […] Sodium pyruvate (Sigma S-8636), NEM (non-Essential Amino Acids; Invitrogen 11140-035) and 200 μg/ml Zeocin (Invitrogen R250-01).
Cells were harvested for assay when they reached 80-90% confluency using enzyme free cell Dissociation Solution (Life technologies 13151-014) incubated with the cells for 5 min at 37° C. in an atmosphere containing 5% CO2. Detached cells were collected in warmed growth media and centrifuged at 2000 rpm for 10 min, washed in PBS (Phosphate Buffered Saline; Life Technologies 14190-094) and centrifuged again as just described. The cells were re-suspended at 2×10^5 cells/ml in growth medium (composition as described above). 20 μl of this cell suspension was added to each well of a 384 well black clear bottomed plate (Greiner Bio One 781091-PFI). The assay buffer used was PBS supplemented with 0.05% Pluronic F-127 (Sigma 9003-11-6) and 2.5% DMSO. Muscarinic M3 receptor signalling was stimulated using 80 nM carbamyl choline (Aldrich N240-9) incubated with the cells for 4 h at 37° C./5% CO2 and monitored at the end of the incubation period using a Tecan SpectraFluor+ plate reader (λ—excitation 405 nm, emission 450 nm and 503 nm). M3 receptor antagonists under test were added to the assay at the beginning of the 4 h incubation period and compound activity measured as the concentration dependent inhibition of the carbamyl choline induced signal. Inhibition curves were plotted and IC50 values generated using a 4-parameter sigmoid fit and converted to Ki values using the Cheng-Prusoff correction and the KD value for carbamyl choline in the assay.

T1 sequence (P20309 whole entry): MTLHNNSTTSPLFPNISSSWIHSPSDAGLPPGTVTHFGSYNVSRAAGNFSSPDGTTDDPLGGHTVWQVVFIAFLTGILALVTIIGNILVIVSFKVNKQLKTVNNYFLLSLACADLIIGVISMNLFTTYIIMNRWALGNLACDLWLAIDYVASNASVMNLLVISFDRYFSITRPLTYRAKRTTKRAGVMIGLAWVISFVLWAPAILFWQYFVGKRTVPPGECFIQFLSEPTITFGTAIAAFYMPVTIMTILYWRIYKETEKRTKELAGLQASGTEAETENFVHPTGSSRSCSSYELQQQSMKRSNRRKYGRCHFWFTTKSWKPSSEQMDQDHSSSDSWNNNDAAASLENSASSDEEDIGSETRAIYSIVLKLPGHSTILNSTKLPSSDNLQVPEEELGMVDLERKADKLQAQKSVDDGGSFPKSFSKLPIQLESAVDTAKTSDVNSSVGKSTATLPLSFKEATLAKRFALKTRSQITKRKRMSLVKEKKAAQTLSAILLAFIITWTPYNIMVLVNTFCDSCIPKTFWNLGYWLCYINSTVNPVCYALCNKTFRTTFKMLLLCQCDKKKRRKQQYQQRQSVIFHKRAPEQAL

SMILES	Ki
CC(C)N(CC[C@H](c1ccccc1)c1cc(CCOc2ccc(CCNCc3ccc(O)c(F)c3)cc2)ccc1O)C(C)C [Example 13, 2-[(1R)-3-(diisopropylamino)-1-phenylpropyl]-4-[2-(4-{2-[(3-fluoro-4-hydroxybenzyl)amino]ethyl}phenoxy)ethyl]phenol]	> 12.1 nM
CC(C)N(CC[C@H](c1ccccc1)c1cc(CCOc2ccc(CCNCc3cccc(F)c3O)cc2)ccc1O)C(C)C [Example 14, 2-[(1R)-3-(diisopropylamino)-1-phenylpropyl]-4-[2-(4-{2-[(3-fluoro-2-hydroxybenzyl)amino]ethyl}phenoxy)ethyl]phenol]	1.4 nM
CC(C)N(CC[C@H](c1ccccc1)c1cc(CCOc2ccc(CCNCc3cc(F)c(O)c(F)c3)cc2)ccc1O)C(C)C [Example 15, 4-{[2-(4-{2-[3-((1R)-3-Diisopropylamino-1-phenyl-propyl)-4-hydroxy-phenyl]-ethoxy}-phenyl)-ethylamino]-methyl}-2,6-difluoro-phenol]	1.55 nM
CC(C)N(CC[C@H](c1ccccc1)c1cc(CCOc2ccc(CCNCc3cccc(O)c3)cc2)ccc1O)C(C)C [Example 18, 2-((1R)-3-Diisopropylamino-1-phenyl-propyl)-4-(2-{4-[2-(3-hydroxy-benzylamino)-ethyl]-phenoxy}-ethyl)-phenol]	> 10.4 nM
CC(C)N(CC[C@H](c1ccccc1)c1cc(CCOc2ccc(CCNCc3cc(F)c(O)c(Cl)c3)cc2)ccc1O)C(C)C [Example 20, 2-Chloro-4-{[2-(4-{2-[3-((1R)-3-diisopropylamino-1-phenyl-propyl)-4-hydroxy-phenyl]-ethoxy}-phenyl)-ethylamino]-methyl}-6-fluoro-phenol]	> 5.89 nM
CC(C)N(CC[C@H](c1ccccc1)c1cc(CCOc2ccc(CCNCc3cc(O)cc(O)c3)cc2)ccc1O)C(C)C [Example 21, 5-{[2-(4-{2-[3-((1R)-3-Diisopropylamino-1-phenyl-propyl)-4-hydroxy-phenyl]-ethoxy}-phenyl)-ethylamino]-methyl}-benzene-1.3-diol]	> 5.75 nM
CC(C)N(CC[C@H](c1ccccc1)c1cc(CCOc2ccc(CCNCc3cc(F)cc(F)c3O)cc2)ccc1O)C(C)C [Example 22, 2-{[2-(4-{2-[3-((1R)-3-Diisopropylamino-1-phenyl-propyl)-4-hydroxy-phenyl]-ethoxy}-phenyl)-ethylamino]-methyl}-4,6-difluoro-phenol]	7.11 nM
CC(C)N(CC[C@H](c1ccccc1)c1cc(CCOc2ccc(CCNC(=O)c3cc(Cl)c(O)c(Cl)c3)cc2)ccc1O)C(C)C [Example 24, 3,5-Dichloro-N-[2-(4-{2-[3-((1R)-3-diisopropylamino-1-phenyl-propyl)-4-hydroxy-phenyl]-ethoxy}-phenyl)-ethyl]-4-hydroxy-benzamide]	2.15 nM
CC(C)N(CC[C@H](c1ccccc1)c1cc(CCOc2ccc(CCNC(=O)c3ccc(F)c(O)c3)cc2)ccc1O)C(C)C [Example 25, 4-Fluoro-N-[2-(4-{2-[3-((1R)-3-diisopropylamino-1-phenyl-propyl)-4-hydroxy-phenyl]-ethoxy}-phenyl)-ethyl]-3-hydroxy-benzamide]	0.751 nM
CC(C)N(CC[C@H](c1ccccc1)c1cc(CCOc2ccc(CCNS(=O)(=O)c3ccc(O)cc3)cc2)ccc1O)C(C)C [Example 27, N-[2-(4-{2-[3-((1R)-3-diisopropylamino-1-phenyl-propyl)-4-hydroxy-phenyl]-ethoxy}-phenyl)-ethyl]-4-hydroxy-benzenesulfonamide]	1.32 nM

Continued, values first:

Ki	SMILES
> 6.87 nM	CC(C)N(CC[C@H](c1ccccc1)c1cc(CCOc2ccc(CCNCc3cc(Cl)c(O)c(Cl)c3)cc2)ccc1O)C(C)C [Example 16, 2,6-Dichloro-4-{[2-(4-{2-[3-((1R)-3-diisopropylamino-1-phenyl-propyl)-4-hydroxy-phenyl]-ethoxy}-phenyl)-ethylamino]-methyl}-phenol]
1 nM	CC(C)N(CC[C@H](c1ccccc1)c1cc(CCOc2ccc(CCNCc3cccc(O)c3Cl)cc2)ccc1O)C(C)C [Example 17, 2-chloro-3-[({2-[4-(2-{3-[(1R)-3-(diisopropylamino)-1-phenylpropyl]-4-hydroxyphenyl}ethoxy)phenyl]ethyl}amino)methyl]phenol]
2.69 nM	CC(C)N(CC[C@H](c1ccccc1)c1cc(CCOc2ccc(CCNCc3cccc(O)c3F)cc2)ccc1O)C(C)C [Example 19, 3-[({2-[4-(2-{3-[(1R)-3-(diisopropylamino)-1-phenylpropyl]-4-hydroxyphenyl}ethoxy)phenyl]ethyl}amino)methyl]-2-fluorophenol]
> 6.66 nM	CC(C)N(CC[C@H](c1ccccc1)c1cc(CCOc2ccc(CCNCc3ccc(F)c(O)c3)cc2)ccc1O)C(C)C [Example 23, 2-[(1R)-3-(diisopropylamino)-1-phenylpropyl]-4-[2-(4-{2-[(4-fluoro-3-hydroxybenzyl)amino]ethyl}phenoxy)ethyl]phenol]
0.705 nM	CC(C)N(CC[C@H](c1ccccc1)c1cc(CCOc2ccc(CCNC(=O)c3ccc(O)cc3)cc2)ccc1O)C(C)C [Example 26, 4-Hydroxy-N-[2-(4-{2-[3-((1R)-3-diisopropylamino-1-phenyl-propyl)-4-hydroxy-phenyl]-ethoxy}-phenyl)-ethyl]-benzamide]
